The record followed here is patent publication US6172061A, “Pharmaceutical composition for antagonizing CCR5 comprising anilide derivative” (Takeda Chemical Industries, Ltd., priority 1997, dated 2001).

SMILES strings stand for the structures.

One test concerns the target T1, human CCR5 (Homo sapiens, UniProt P51681).
T1 construct: expressed in transfected cells; host or cells: CHO-K1 (plasmid pCKR5 in pcDNA3.1, geneticin-selected CHO/CCR5 cells)
Description: inhibition of [^125 I]-RANTES binding to CHO/CCR5 cells (CCR5 antagonistic activity). The settings on record: Test Compound 1 μM, 100 pM [^125 I]-RANTES, room temperature 30 minutes; for inhibition at 1 µM: read-out: Inhibition Rate (%) to CCR5 binding. The procedure:
Cloning of CCR5 gene was carried out by PCR (polymerase chain reaction) from human spleen cDNA. With using 0.5 ng of spleen cDNA (Toyobo, QUICK-Clone cDNA) as template, PCR was performed in DNA Thermal Cycler 480 (Perkin-Elmer) (reaction conditions: 30 cycles of 95° C. for 1 minute, 60° C. for 1 minute, and 75° C. for 5 minutes) by adding primer set, 5'-CAGGATCCGATG […]-3' (25 pmol) and 5'-TCTAGATCACAAGCC CACAGATATTTCCTGCTCC-3' (25 pmol), which were designed referring to nucleotide sequence of CCR5 gene reported by Samson et al. (Biochemistry, 35(11), 3362-3367 (1996)) and by using TaKaRa EX Taq (Takara Shuzo). The resultant PCR product was subjected to agarose gel electrophoresis to collect about 1.0 kb DNA fragment, which was subjected to Original TA Cloning Kit (Funakoshi) to carry out cloning of CCR5 gene.
The plasmid obtained in the above (1) was digested with restriction enzymes XbaI (Takara Shuzo) and BamHI (Takara Shuzo) and subjected to agarose gel electrophoresis to collect about 1.0 kb DNA fragment. The DNA fragment was mixed with plasmid pcDNA3.1 (Funakoshi) for expression in animal cells, said plasmid being digested with XbaI and BamHI, and they were ligated with DNA Ligation Kit Ver.2 (Takara Shuzo). The resulting plasmid was subjected to transformation of competent cell of E. coli JM109 (Takara Shuzo) to obtain plasmid pCKR^5.
CHO-K1 cells were grown in 750 ml of tissue culture flask (Becton Dickinson) using Ham's F12 medium (Nihon Pharmaceutical) containing 10% fetal calf serum (Life Tech Oriental) and took off with 0.5 g/L trypsin-0.2 g/L EDTA (Life Tech Oriental). The cells were washed with PBS (Life Tech Oriental), centrifuged (1000 rpm, 5 minutes), and suspended in PBS. With using Gene Pulser (Bio-Rad Laboratories), DNA was introduced into the cells under the conditions shown below. That is, to the cuvette of 0.4 cm gap were added 8×10^6 cells and 10 μg of plasmid pCKR^5 for expression of human CCR5, and electroporation was carried out under 0.25 kV of voltage and 960 μF of capacitance. The cells were transferred into Ham's F12 medium (Nihon Pharmaceutical) containing 10% fetal calf serum, and cultivated for 24 hours. The cells were again took off and centrifuged, and suspended in Ham's F12 medium (Nihon Pharmaceutical) containing 10% fetal calf serum and 500 μg/ml of geneticin (Life Tech Oriental). The suspension was diluted to give 10^4 cells/ml of the suspension, which was inoculated on 96 well plate (Becton Dickinson) to give geneticin resistant cells. The resulting geneticin resistant cells were cultivated in 96 well plate (Becton Dickinson), and cells expressing CCR5 were selected from the geneticin resistant cells. That is, in assay buffer (Ham's F12 medium containing 0.5% BSA and 20 mM HEPES (Wako Pure Chemical, pH7.2) to which was added 200 pM of [^125 I]-RANTES (Amersham) as ligand, binding reaction as carried out at room temperature for 40 minutes, and the buffer was washed with cooled PBS. To the buffer was added 50 μl/well of 1M NaOH, and the mixture was stirred. Radioactivity was determined with γ-counter to select CHO/CCR5 cells which specifically bind to the ligand.
The CHO/CCR5 were inoculated on 96 well microplate (5×10^4 cells/well) and cultivated for 24 hours. The medium was removed by means of suction, and to each well was added assay buffer containing Test Compound (1 μM) and then 100 pM of [^125 I]-RANTES (Amersham) as ligand. Binding assay was carried out at room temperature for 30 minutes, and assay buffer was removed by means of suction. Each well was washed twice with cooled PBS, and 200 μl of Microscint-20 (Packard Instrument, Inc.) was added to each well. Radio-activity was determined with Top-Count Micro Scintillation Counter (Packard Instrument, Inc.).
According to the method described above, inhibition rate of Test Compound (whose number is referred to in the following Examples) to CCR5 binding.

The test system of test [1] is HIV-1. Put plainly: Inhibitory Effect on HIV-1 Infection to MAGI^- CCR5 Cell. Type of test: cell-based, HIV-1 BA-L. The following applies: MAGI-CCR5 cells, 2 days. Here is the method: The plasmid where β-galactosidase gene was ligated downstream of HIV-1 LTR was introduced into CD4 positive HeLa cell, to which human CCR5 was further introduced to obtain transformant MAGI^- CCR5. By using said transformant MAGI^- CCR5, degree of HIV-1 infection was calculated from β-galactosidase activity (blue color due to decomposition of 5-bromo-4-chloro-3-indolyl-β-D-galactopyranoside).
Specifically, MAGI-CCR5 cells were suspended in DMEM medium containing 10% serum to prepare 5×10^4 cells/ml suspension. To each well of 96 well plate was inoculated 200 μl of the suspension, and the cells were cultivated at 37° C. overnight. The medium was removed by means of suction, and to the residue was added 100 μl of the above medium containing 1.6μM of Test Compound 96 or 0.064 μM of Test Compound 248 and 100 μl of the above medium containing 300 PFU of HIV-1 BA-L cells. The cells were cultivated at 37° C. for 2 days. The medium was removed by means of suction. To the residue was added 200 μl of cell fixative (PBS containing 1% formaldehyde and 0.2% glutaraldehyde), and the mixture was allowed to stand at room temperature for 5 minutes and washed twice with PBS. […] The number of blue cells was counted by microscope and defined as the number of cells infected with HIV-1.

The test system of test [2] is HIV-1. Description: Inhibitory Effect on HIV-1 Infection to Human PBMC. Format: cell-based, HIV-1 BA-L. The following applies: 7 days, p24 antigen ELISA. Here is the method:
From normal person human peripheral blood mononuclear cells (PBMC) were separated, and the cells were stimulated with 10 μg/ml of PHA (Phytohemaglutinin) and 20U/ml of interleukin-2 (IL-2) for 3 days. The cells were suspended in RPMI-1640 medium containing 20% serum to prepare 1×10^6 /ml suspension. To the suspension were infected HIV-1 BA-L cells (20 ng as an amount of p24 antigen), and viruses were absorbed at 37° C. for 2 hours. The cells were washed and suspended in RPMI-1640 medium containing 20% serum and IL-2 20 U/ml to prepare 1×10^5 /ml suspension. To the PBMC suspension was added the same amount of a solution which contains 2.0 μM of Test Compound 96 or 0.32 μM of Test Compound 248, and the cells were cultivated at 37° C. for 7 days in carbon dioxide gas incubator. The amount of p24 antigen in supernatant of the cultivated medium was determined by enzyme-linked immunosorbent assay (ELISA) and defined as degree of HIV-1 infection.
A general note: In an ELISA, binding on a coated surface is turned into a signal by an enzyme label.

T1 sequence (P51681 whole entry): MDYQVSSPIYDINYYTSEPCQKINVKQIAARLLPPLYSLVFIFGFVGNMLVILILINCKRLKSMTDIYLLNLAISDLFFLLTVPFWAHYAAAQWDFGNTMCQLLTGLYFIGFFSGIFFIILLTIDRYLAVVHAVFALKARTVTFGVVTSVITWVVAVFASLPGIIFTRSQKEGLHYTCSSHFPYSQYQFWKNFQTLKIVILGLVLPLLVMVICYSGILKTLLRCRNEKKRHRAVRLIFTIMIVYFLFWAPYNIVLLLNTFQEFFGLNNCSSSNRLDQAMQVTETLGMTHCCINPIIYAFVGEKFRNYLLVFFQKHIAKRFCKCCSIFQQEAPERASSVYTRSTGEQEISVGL

For the compound `Cc1ccc(-c2ccc3c(c2)C=C(C(=O)Nc2ccc(C[N+]4(C)CCCCC4)cc2)CC3)cc1` [Compound 16, 1-methyl-1-[4-[7-(4-methylphenyl)-3,4-dihydronaphthalene-2-carboxamido]benzyl]piperidinium iodide], the inhibition at 1 µM on human CCR5 was 88%. `Cc1ccc(-c2ccc3c(c2)C=C(C(=O)Nc2ccc(C[N+]4(C)CCCCC4)cc2)CCC3)cc1` [Compound 92, 1-(N-(2-(4-methylphenyl)-6,7-dihydro-5H-benzocycloheptene-8-carbonyl)-4-aminobenzyl)-1-methylpiperidinium iodide]: the inhibition at 1 µM at human CCR5 is 100%. As for `Cc1ccc(-c2ccc3c(c2)C=C(C(=O)Nc2ccc(C[N+]4(C)CCCCC4)cc2)CCO3)cc1` [Compound 96, 1-(N-(7-(4-methylphenyl)-2,3-dihydro-1-benzoxepin-4carbonyl)-4-aminobenzyl)-1-methylpiperidinium iodide], the inhibition at 1 µM at human CCR5 turned out to be 93%. For the same compound, the entries for the “inhibition rate on HIV-1 infection” value with HIV-1 [1] (100 μl medium containing 1.6 μM Test Compound 96 plus 100 μl medium with 300 PFU HIV-1 BA-L) and in the test with HIV-1 [2] (same amount of solution containing 2.0 μM Test Compound 96 added) were 92% and 96%, respectively. With `Cc1ccc(-c2ccc3c(c2)C=C(C(=O)Nc2ccc(C[N+]4(C)CCCCC4)cc2)CCO3)cc1` [Compound 97, 1-(N-(7-(4-methylphenyl)-2,3-dihydro-1-benzoxepin-4-carbonyl)-4-aminobenzyl)-1-methylpiperidinium chloride], the “Inhibition Rate (%) to CCR5 binding” value on human CCR5 is recorded as 94%. As for `Cc1ccc(-c2ccc3c(c2)C=C(C(=O)Nc2ccc(CC[N+]4(C)CCCCC4)cc2)CCO3)cc1` [Compound 100, N-((7-(4-methylphenyl)-2,3-dihydro-1-benzoxepin-4-carbonyl)-2-(4-aminophenyl)ethyl)-N-methylpiperidinium iodide], the inhibition at 1 µM at human CCR5 amounted to 100%. The same measure, in the same setting: the value for `Cc1ccc(-c2ccc3c(c2)C=C(C(=O)Nc2ccc(CN(C)C4CCOCC4)cc2)CCO3)cc1` [Compound 128, N-(4-(N-methyl-(N-tetrahydropyran-4-yl)aminomethyl)-phenyl)-7-(4-methylphenyl)-2,3-dihydro-1-benzoxepine-4-carboxamide] was 87%; that for `CC(C)(C)c1ccc(-c2ccc3c(c2)C=C(C(=O)Nc2ccc(CP4(=O)CCCCC4)cc2)CCO3)cc1` [Compound 180, N-(4-(pentamethylene)phosphorylmethyl-phenyl)-7-(4-tert-butylphenyl)-2,3-dihydro-1-benzoxepine-4-carboxamide] was 99%; that for `Cc1ccc(-c2ccc(/C=C/C(=O)Nc3ccc(CP4(=O)CCCCC4)cc3)s2)cc1` [Compound 209, (E)-N-(4-pentamethylenephosphorylmethylphenyl)-3-[5-(4-methylphenyl)-thiophen-2-yl]acrylic amide] was 80%. As for `Cc1ccc(-c2ccc3c(c2)C=C(C(=O)Nc2ccc(C[N+](C)(C)C4CCOCC4)cc2)CCC3)cc1` [Compound 248, N,N-dimethyl-N-(4-(((2-(4-methylphenyl)-6,7-dihydro-5H-benzocyclohepten-8-yl)carbonyl)amino)benzyl)-N-(4-tetrahydropyranyl)ammonium chloride], the inhibition at 1 µM at human CCR5 came out at 99%. Further, the “inhibition rate on HIV-1 infection” value in the test on HIV-1 [1] (100 μl medium containing 0.064 μM Test Compound 248 plus 100 μl medium with 300 PFU HIV-1 BA-L) is listed as 100%; with HIV-1 [2] (same amount of solution containing 0.32 μM Test Compound 248 added), 74%. Turning to `Cc1ccc(-c2ccc3c(c2)C=C(C(=O)Nc2ccc(C[N+](C)(C)C4CCC(=O)CC4)cc2)CCO3)cc1` [Compound 249, N,N-dimethyl-N-(4-(((7-(4-methylphenyl)-2,3-dihydro-1-benzoxepin-4-yl)carbonyl)amino)benzyl)-N-(4-oxocyclohexyl)ammoniumchloride], at human CCR5, the inhibition at 1 µM was found to be 96%. Regarding `CCOc1ccc(-c2ccc3c(c2)C=C(C(=O)Nc2ccc(C[N+](C)(C)C4CCOCC4)cc2)CCO3)cc1` [Compound 250, N-(4-(((7-(4-ethoxyphenyl)-2,3-dihydro-1-benzoxepin-4-yl)carbonyl)amino)benzyl)-N,N-dimethyl-N-(4-tetrahydropyranyl)ammonium chloride], the inhibition at 1 µM on human CCR5 is 96%. Take `Cc1ccc(-c2ccc3c(c2)C=C(C(=O)Nc2ccc(CP4(=O)OCCCO4)cc2)CCO3)cc1` [Reference Example 51, 2-(4-(7-(4-methylphenyl)-2,3-dihydro-1-benzoxepin-4-carbonylamino)benzyl)-1,3,2-dioxaphosphorinane-2-oxide]: the inhibition at 1 µM on human CCR5 turned out to be 73%.

The term inhibition denotes the relative decrease from the control value, in per cent.
